The record followed here is US20260217697A1, “COMPOUNDS COMPRISING HETEROARYL RINGS AND COMPOSITIONS AND METHODS THEREOF” (lonGen Therapeutics Co., Ltd., priority 2022, published 2026).

One may read the IC50 as the concentration at which inhibition is half-maximal. A lower IC50 goes with higher potency.

Bounds are passed on as bounds.

The assay has as its target T1, hTRPV3 (Homo sapiens, UniProt Q8NET8).
T1 construct: The commercially available plasmid with the full-length cDNA of hTRPV3 (791 aa) (NM_001258205.2); host or cells: HEK293T
T1 sequence (Q8NET8 1-791 isoform Q8NET8-2): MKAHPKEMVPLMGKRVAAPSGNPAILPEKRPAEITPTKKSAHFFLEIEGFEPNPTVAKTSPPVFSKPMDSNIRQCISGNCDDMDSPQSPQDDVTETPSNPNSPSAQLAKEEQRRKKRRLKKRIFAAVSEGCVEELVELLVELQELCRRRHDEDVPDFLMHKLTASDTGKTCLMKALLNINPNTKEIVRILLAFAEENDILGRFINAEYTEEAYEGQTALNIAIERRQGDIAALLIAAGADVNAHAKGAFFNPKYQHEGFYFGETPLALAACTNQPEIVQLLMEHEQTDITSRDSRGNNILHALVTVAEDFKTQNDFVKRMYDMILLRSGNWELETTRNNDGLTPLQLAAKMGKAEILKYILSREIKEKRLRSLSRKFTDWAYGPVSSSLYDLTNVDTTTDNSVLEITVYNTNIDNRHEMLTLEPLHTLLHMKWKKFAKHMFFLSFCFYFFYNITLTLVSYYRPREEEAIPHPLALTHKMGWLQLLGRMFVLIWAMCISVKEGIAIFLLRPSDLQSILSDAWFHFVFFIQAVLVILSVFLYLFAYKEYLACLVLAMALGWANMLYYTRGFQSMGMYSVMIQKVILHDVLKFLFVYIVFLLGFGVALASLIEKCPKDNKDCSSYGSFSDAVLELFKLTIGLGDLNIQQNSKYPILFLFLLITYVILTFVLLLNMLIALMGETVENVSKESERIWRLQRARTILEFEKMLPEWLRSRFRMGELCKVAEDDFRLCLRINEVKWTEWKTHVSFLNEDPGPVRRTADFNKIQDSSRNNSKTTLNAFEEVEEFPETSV
The assay can be described thus: Whole-cell patch-clamp recording of hTRPV3 current in transfected HEK293T cells (2-APB induced). In kind it is cell-based. The settings on record: current induced by 300 μM 2-APB, compounds tested up to 10 μM, room temperature. The method in brief: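 IC50 comes from Hill fits, 0–100% bounds, of percent block of 2-APB-induced current, with compounds perfused at up to 10 μM. Currents elicited at +80/−80 mV (400-ms steps, 2-s interval, 0 mV hold), room temperature, symmetric NaCl/EDTA/HEPES pH 7.4 solutions. Cells: hTRPV3-transfected HEK293T, used 18 h after transfection.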
For orientation: In patch-clamp work, channel activity is measured electrically.

Compound `COc1ncnc(OC)c1C(=O)Nc1nc2c(s1)C1(COC(C)(C)OC1)Oc1cc(C(F)(F)F)ccc1-2` [compound 108, N-(2′,2′-dimethyl-7-(trifluoromethyl)spiro[chromeno[4,3-d]thiazole-4,5′-[1,3]dioxan]-2-yl)-4,6-dimethoxypyrimidine-5-carboxamide] yielded an IC50 of 100 to 1000 nM.

Take `COc1ncnc(OC)c1C(=O)Nc1nc2c(s1)C1(CCC(NC(=O)OC(C)(C)C)CC1)Oc1cc(C(F)(F)F)ccc1-2` (stereo not shown) [compound 109]: the IC50 was in the range of 100 to 1000 nM.

Take `CCC1(CC)Oc2cc(C(F)(F)F)ccc2-c2nc(NCc3c(OC)ncnc3OC)sc21` [compound 110, N-((4,6-dimethoxypyrimidin-5-yl)methyl)-4,4-diethyl-7-(trifluoromethyl)-4H-chromeno[4,3-d]thiazol-2-amine]: the IC50 was 1000 to 10000 nM.

Consider `CCC1(CC)Oc2cc(C(F)(F)F)ccc2-c2nc(NC(=O)c3c(Cl)ncnc3Cl)sc21` [compound 111, 4,6-dichloro-N-(4,4-diethyl-7-(trifluoromethyl)-4H-chromeno[4,3-d]thiazol-2-yl)pyrimidine-5-carboxamide], for which the IC50 lay within 1000 to 10000 nM.

Compound `CCC1(CC)Oc2cc(C(F)(F)F)ccc2-c2nc(NC(=O)c3c(Cl)ncnc3OC)sc21` [compound 112, 4-chloro-N-(4,4-diethyl-7-(trifluoromethyl)-4H-chromeno[4,3-d]thiazol-2-yl)-6-methoxypyrimidine-5-carboxamide] showed a 50% inhibitory concentration (IC50) of 100 to 1000 nM.

In the case of `COc1ncnc(OC)c1C(=O)Nc1nc2c(s1)C(CO)(CO)Oc1cc(C(F)(F)F)ccc1-2` [compound 113, N-(4,4-bis(hydroxymethyl)-7-(trifluoromethyl)-4H-chromeno[4,3-d]thiazol-2-yl)-4,6-dimethoxypyrimidine-5-carboxamide], the IC50 is 1000 to 10000 nM.

With `COc1ncnc(OC)c1C(=O)Nc1nc2c(s1)C(C)(CCCC(=O)O)Oc1cc(C(F)(F)F)ccc1-2` (stereo not shown) [compound 114, 4-(2-(4,6-dimethoxypyrimidine-5-carboxamido)-4-methyl-7-(trifluoromethyl)-4H-chromeno[4,3-d]thiazol-4-yl) butanoic acid], the IC50 lay within 1000 to 10000 nM.

As to `COc1ncnc(OC)c1C(=O)Nc1nc2c(s1)C1(CN(C(=O)OC(C)C)C1)Oc1cc(C(F)(F)F)ccc1-2` [compound 115, isopropyl 2′-(4,6-dimethoxypyrimidine-5-carboxamido)-7′-(trifluoromethyl)spiro[azetidine-3,4′-chromeno[4,3-d]thiazole]-1-carboxylate], the IC50 was 100 to 1000 nM.

In the case of `COc1ncnc(OC)c1C(=O)Nc1nc2c(s1)C1(CCC(C(=O)N(C)C)CC1)Oc1cc(C(F)(F)F)ccc1-2` (stereo not shown) [compound 116, 2-(4,6-dimethoxypyrimidine-5-carboxamido)-N,N-dimethyl-7-(trifluoromethyl)spiro[chromeno[4,3-d]thiazole-4,1′-cyclohexane]-4′-carboxamide], the IC50 is 1000 to 10000 nM.

Turning to `CCC1(CC)Oc2cc(C(C)=O)ccc2-c2nc(NC(=O)c3c(OC)ncnc3OC)sc21` [compound 117, N-(7-acetyl-4,4-diethyl-4H-chromeno[4,3-d]thiazol-2-yl)-4,6-dimethoxypyrimidine-5-carboxamide], the IC50 is 1000 to 10000 nM.

`COCOCC1(COCOC)Oc2cc(C(F)(F)F)ccc2-c2nc(NC(=O)c3c(OC)ncnc3OC)sc21` [compound 118] displayed an IC50 of 100 to 1000 nM.

Take `C=CCc1ncnc(OC)c1C(=O)Nc1nc2c(s1)C(CC)(CC)Oc1cc(C(F)(F)F)ccc1-2` [compound 119, 4-allyl-N-(4,4-diethyl-7-(trifluoromethyl)-4H-chromeno[4,3-d]thiazol-2-yl)-6-methoxypyrimidine-5-carboxamide]: the IC50 was in the range of 1000 to 10000 nM.

`CCC1(CC)Oc2cc(C(F)(F)F)ccc2-c2nc(NC(=O)c3c(NC)ncnc3OC)sc21` [compound 120, N-(4,4-diethyl-7-(trifluoromethyl)-4H-chromeno[4,3-d]thiazol-2-yl)-4-methoxy-6-(methylamino)pyrimidine-5-carboxamide] displayed an IC50 of 1000 to 10000 nM.

`CCC1(CC)Oc2cc(C(F)(F)F)ccc2-c2nc(NC(=O)c3c(O)ncnc3OC)sc21` [compound 121, N-(4,4-diethyl-7-(trifluoromethyl)-4H-chromeno[4,3-d]thiazol-2-yl)-4-hydroxy-6-methoxypyrimidine-5-carboxamide]: the IC50 was not below 10000 nM.

For the compound `CCC1(CC)Oc2cc(C(F)(F)F)ccc2-c2nc(NC(=O)c3c(OC)ncnc3OCOC)sc21` [compound 122, N-(4,4-diethyl-7-(trifluoromethyl)-4H-chromeno[4,3-d]thiazol-2-yl)-4-methoxy-6-(methoxymethoxy)pyrimidine-5-carboxamide], the IC50 was not below 10000 nM.

On to `COc1ncnc(OC)c1C(=O)Nc1nc2c(s1)C1(CCC(C(=O)OC(C)C)CC1)Oc1cc(C(F)(F)F)ccc1-2` (stereo not shown) [compound 123, isopropyl 2-(4,6-dimethoxypyrimidine-5-carboxamido)-7-(trifluoromethyl)spiro[chromeno[4,3-d]thiazole-4,1′-cyclohexane]-4′-carboxylate], for which the IC50 is less than 100 nM.

Consider `CCC1(CC)Oc2cc(C)ccc2-c2nc(NC(=O)c3c(OC)ncnc3OC)sc21` [compound 124, N-(4,4-diethyl-7-methyl-4H-chromeno[4,3-d]thiazol-2-yl)-4,6-dimethoxypyrimidine-5-carboxamide], for which the IC50 fell in the range of 100 to 1000 nM.

Compound `COc1ncnc(OC)c1C(=O)Nc1nc2c(s1)C1(CCC(C(=O)NC(C)C)CC1)Oc1cc(C(F)(F)F)ccc1-2` (stereo not shown) [compound 125, 2-(4,6-dimethoxypyrimidine-5-carboxamido)-N-isopropyl-7-(trifluoromethyl)spiro[chromeno[4,3-d]thiazole-4,1′-cyclohexane]-4′-carboxamide] displayed an IC50 of 1000 to 10000 nM.

Consider `COc1ncnc(OC)c1C(=O)Nc1nc2c(s1)C1(CCC(C(=O)N(C)Cc3ccccc3)CC1)Oc1cc(C(F)(F)F)ccc1-2` (stereo not shown) [compound 126, N-benzyl-2-(4,6-dimethoxypyrimidine-5-carboxamido)-N-methyl-7-(trifluoromethyl)spiro[chromeno[4,3-d]thiazole-4,1′-cyclohexane]-4′-carboxamide], for which the IC50 lay in the range of 100 to 1000 nM.

`COc1ncnc(OC)c1C(=O)Nc1nc2c(s1)C1(CCC(C(=O)N(C)C(C)C)CC1)Oc1cc(C(F)(F)F)ccc1-2` (stereo not shown) [compound 127, 2-(4,6-dimethoxypyrimidine-5-carboxamido)-N-isopropyl-N-methyl-7-(trifluoromethyl)spiro[chromeno[4,3-d]thiazole-4,1′-cyclohexane]-4′-carboxamide] returned an IC50 of 100 to 1000 nM.

Take `CCOC(=O)[C@H]1CC[C@]2(CC1)Oc1cc(Br)ccc1-c1nc(NC(=O)c3c(OC)ncnc3OC)sc12` [compound 128]: the IC50 lay within 100 to 1000 nM.

With `CCOC(=O)[C@H]1CC[C@@]2(CC1)Oc1cc(Br)ccc1-c1nc(NC(=O)c3c(OC)ncnc3OC)sc12` [compound 129], the IC50 lay within 100 to 1000 nM.

Take `CCOC(=O)[C@H]1CC[C@@]2(CC1)Oc1cc(C(C)C)ccc1-c1nc(NC(=O)c3c(OC)ncnc3OC)sc12` [compound 130]: the IC50 fell in the range of 1000 to 10000 nM.

`COc1ncnc(OC)c1C(=O)Nc1nc2c(s1)C1(CC(NC(=O)OC(C)(C)C)C1)Oc1cc(C(F)(F)F)ccc1-2` (stereo not shown) [compound 131, tert-butyl(2-(4,6-dimethoxypyrimidine-5-carboxamido)-7-(trifluoromethyl)spiro[chromeno[4,3-d]thiazole-4,1′-cyclobutan]-3′-yl)carbamate] gave an IC50 of 100 to 1000 nM.

Compound `COc1ncnc(OC)c1C(=O)Nc1nc2c(s1)C1(CN(C(=O)OC(C)(C)C)C1)Oc1cc(C(C)C)ccc1-2` [compound 132, tert-butyl 2′-(4,6-dimethoxypyrimidine-5-carboxamido)-7′-isopropylspiro[azetidine-3,4′-chromeno[4,3-d]thiazole]-1-carboxylate] had an IC50 of 100 to 1000 nM.

Compound `CCOC(=O)C1CC2(C1)Oc1cc(C(F)(F)F)ccc1-c1nc(NC(=O)c3c(OC)ncnc3OC)sc12` (stereo not shown) [compound 133, ethyl 2-(4,6-dimethoxypyrimidine-5-carboxamido)-7-(trifluoromethyl)spiro[chromeno[4,3-d]thiazole-4,1′-cyclobutane]-3′-carboxylate] showed an IC50 of less than 100 nM.

Consider `COc1ncnc(OC)c1C(=O)Nc1nc2c(s1)C1(COC1)Oc1cc(Br)ccc1-2` [compound 134, N-(7-bromospiro[chromeno[4,3-d]thiazole-4,3′-oxetan]-2-yl)-4,6-dimethoxypyrimidine-5-carboxamide], for which the IC50 is 100 to 1000 nM.

As to `COc1ncnc(OC)c1C(=O)Nc1nc2c(s1)C1(COC1)Oc1cc(C(C)C)ccc1-2` [compound 135, N-(7-isopropylspiro[chromeno[4,3-d]thiazole-4,3′-oxetan]-2-yl)-4,6-dimethoxypyrimidine-5-carboxamide], the IC50 is less than 100 nM.
